# Experimental data: patent US20080004302A1, “Novel Compounds” (ASTRAZENECA AB, priority 2006, published 2008)
# Counter-ions that a name gives are not always drawn.
# Assays:
# [1] = molecular target: T1, human IGF1R (Homo sapiens, UniProt P08069); experiment: Inhibition of insulin-like growth factor-1 receptor phosphorylation in R+ cells; format: cell-based; conditions: 30 nM IGF1, read-out: IGF cell class
# T1 construct: expressed in transfected cells; host or cells: R+ cells (R- mouse fibroblasts transfected with human IGF1R)
# T1 sequence (P08069 31-1367): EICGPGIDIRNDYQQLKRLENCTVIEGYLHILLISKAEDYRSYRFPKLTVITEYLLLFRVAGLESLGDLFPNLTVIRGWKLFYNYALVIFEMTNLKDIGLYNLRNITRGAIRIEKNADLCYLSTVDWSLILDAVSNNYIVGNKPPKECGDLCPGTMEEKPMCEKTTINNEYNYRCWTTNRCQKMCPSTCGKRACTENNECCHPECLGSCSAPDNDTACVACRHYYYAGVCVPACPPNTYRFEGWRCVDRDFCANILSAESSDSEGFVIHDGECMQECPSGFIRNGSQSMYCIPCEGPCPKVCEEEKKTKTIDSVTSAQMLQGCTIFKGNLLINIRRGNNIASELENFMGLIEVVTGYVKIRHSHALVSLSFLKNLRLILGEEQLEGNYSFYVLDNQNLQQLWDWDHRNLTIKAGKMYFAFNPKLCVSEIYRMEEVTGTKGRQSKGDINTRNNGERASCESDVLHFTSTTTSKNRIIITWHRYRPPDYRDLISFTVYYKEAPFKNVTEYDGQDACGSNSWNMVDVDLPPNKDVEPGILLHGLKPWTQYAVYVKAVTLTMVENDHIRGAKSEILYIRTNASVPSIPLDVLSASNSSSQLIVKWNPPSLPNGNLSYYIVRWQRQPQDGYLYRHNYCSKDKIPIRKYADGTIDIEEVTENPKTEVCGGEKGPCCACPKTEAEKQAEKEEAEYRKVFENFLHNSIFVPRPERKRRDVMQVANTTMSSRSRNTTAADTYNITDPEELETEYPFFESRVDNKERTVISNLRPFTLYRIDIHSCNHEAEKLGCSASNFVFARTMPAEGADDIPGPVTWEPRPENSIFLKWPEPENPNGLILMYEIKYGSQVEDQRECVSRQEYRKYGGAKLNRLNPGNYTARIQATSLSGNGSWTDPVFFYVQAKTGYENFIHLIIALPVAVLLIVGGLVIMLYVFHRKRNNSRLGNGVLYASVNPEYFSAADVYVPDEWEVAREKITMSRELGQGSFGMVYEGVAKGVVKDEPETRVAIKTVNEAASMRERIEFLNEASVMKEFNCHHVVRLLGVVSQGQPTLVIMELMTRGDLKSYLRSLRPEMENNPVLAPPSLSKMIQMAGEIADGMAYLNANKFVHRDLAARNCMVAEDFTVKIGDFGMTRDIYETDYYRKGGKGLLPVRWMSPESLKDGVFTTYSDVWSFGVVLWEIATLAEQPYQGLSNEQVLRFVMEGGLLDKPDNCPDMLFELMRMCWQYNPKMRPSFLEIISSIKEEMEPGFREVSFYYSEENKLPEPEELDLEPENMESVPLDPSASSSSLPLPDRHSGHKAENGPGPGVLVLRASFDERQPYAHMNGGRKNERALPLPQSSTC
# Protocol: This immunofluorescence end point cell assay measures the ability of a test compound to reduce the measured levels of IGF1R phosphorylation after IGF1 stimulation in R^+ cells. […] were derived by transfection of R^− mouse fibroblast cells with human IGF1R.
# (+5% CO2) incubator for 30 minutes.
# Following the compound treatment, the R^+ cells were stimulated with a final concentration of 30 nM IGF1 (Gropep 1M001) for 20 minutes at 37° C. […] Plates were incubated for 1 hour at room temperature. […] Additionally, in-house antibodies raised against phospho […] were also used at a suitable titre determined for each batch.
# The plates were incubated at room temperature for one hour. […] After addition of 100 μl/well PBS the plates were sealed with a black seal.
# The Green Fluorescent phospho IGF1R -associated signal in each well was measured using an Acumen Explorer HTS Reader (TTP Labtech Ltd., Cambridge). […] The instrument is a laser-scanning fluorescence microplate cytometer, which samples the well at regular intervals and uses threshold algorithms to identify all fluorescent intensities above the solution background without the need to generate and analyse an image. These fluorescent objects can be quantified and provide a measure of the phospho IGF1R levels in cells. Fluorescence dose response data obtained with each compound was exported into a suitable software package (such as Origin) to perform curve fitting analysis. Phospho-IGF1R levels in response to compound treatment versus stimulated and unstimulated controls were expressed as an IC50 value.
# [2] = molecular target: FGFR1 kinase (Homo sapiens, UniProt P11362); experiment: Kinase assay (using Caliper technology); format: biochemical; conditions: FGFR1 kinase, Caliper; upper bound of bin; read-out: IC50
# Chain of FGFR1 kinase (P11362 22-822): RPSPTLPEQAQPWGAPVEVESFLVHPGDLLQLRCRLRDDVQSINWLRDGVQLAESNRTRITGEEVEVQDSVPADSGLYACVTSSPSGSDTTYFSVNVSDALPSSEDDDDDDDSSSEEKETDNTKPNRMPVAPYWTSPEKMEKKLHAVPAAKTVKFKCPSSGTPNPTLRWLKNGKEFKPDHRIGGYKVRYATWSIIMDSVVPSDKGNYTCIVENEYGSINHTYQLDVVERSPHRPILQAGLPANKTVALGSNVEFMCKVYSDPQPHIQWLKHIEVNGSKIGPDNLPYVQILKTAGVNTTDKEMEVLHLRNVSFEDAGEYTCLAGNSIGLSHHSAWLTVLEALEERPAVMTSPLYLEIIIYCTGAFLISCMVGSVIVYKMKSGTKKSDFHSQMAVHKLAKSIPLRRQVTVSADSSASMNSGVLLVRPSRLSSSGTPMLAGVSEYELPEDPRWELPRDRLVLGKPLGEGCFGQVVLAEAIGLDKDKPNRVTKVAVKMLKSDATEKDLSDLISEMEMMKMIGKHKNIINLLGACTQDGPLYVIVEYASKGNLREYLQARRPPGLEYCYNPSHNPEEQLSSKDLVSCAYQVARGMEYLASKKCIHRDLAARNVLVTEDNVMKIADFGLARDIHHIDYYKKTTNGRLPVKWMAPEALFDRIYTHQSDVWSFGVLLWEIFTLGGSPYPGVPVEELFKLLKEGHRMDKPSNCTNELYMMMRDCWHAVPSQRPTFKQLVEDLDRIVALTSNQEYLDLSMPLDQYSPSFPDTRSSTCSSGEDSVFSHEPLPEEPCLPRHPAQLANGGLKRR
# Protocol: To determine inhibition of FGFR activity, kinase assays were conducted using Caliper technology.
# Kinase activity assays were performed in Greiner 384-well low volume plates, with a total reaction volume of 12ul per well. […] The substrate for each assay was a custom peptide with fluorescent tag (13 amino acids in length) the sequence of which was specific for FGFR1 kinase.
# Compounds were serially diluted in 5% (v/v) DMSO, before being added to assay plates.
# Assay plates were incubated at room temperature for 1.5 h, before the reaction was stopped with the addition of buffer [comprising: 100 mM HEPES—pH7.5, 0.033% Brij-35, 0.22% Caliper Coating Reagent #3, 88mM EDTA, 5% DMSO]. Stopped assay plates were then read using the Caliper LabChip® LC3000 (which uses microfludics to measure a shift in mobility between fluorescent labelled peptide and the FGFR1 kinase—phosphorylated form of this peptide).
# [3] = molecular target: T2, FGFR1 IIIc (Homo sapiens, UniProt P11362); experiment: Cell based inhibition of transiently expressed FGFR1 IIIc phosphorylation via use of ECHO technology (Cos-1 cells); conditions: Cos-1 cells, phospho-FGFR1, ECHO dosing; upper bound of bin; read-out: IC50
# T2 construct: host or cells: Cos-1
# T2 sequence (P11362 22-822): as above
# Protocol: This assay is designed to detect inhibitors of transiently expressed FGFR1 phosphorylation by antibody staining of fixed cells detected using ArrayScan technology.
# To undertake the assay, Cos-1 cells were harvested at 90-95% confluence for cell transfection. For each 96-well plate, 24μl Lipofectamine 2000 was added to 809 ul OptiMEM and incubated at room temperature for 5 minutes. […] Equal volumes of DNA and Lipofectamine 2000 were combined (DNA: Lipid=1:1.2 ratio) and incubated at room temperature for 20 minutes.
# The harvested Cos-1 cells are counted using a coulter counter and diluted further with 1% FCS/DMEM to 2.5×10^5 cells/ml. For each 96-well, 8.33 ml cells were required. […] 70 μl of media was aspirated from the assay plate using the Quadra before the plate was transferred onto the ECHO 550. […] Compound transfer to the assay plate on the ECHO 550 was at concentration ranges 1)10 μM, 2) 3 μM, 3) 1 μM, 4) 0.3 μM, 5) 0.1 μM, 6) […].
# The plates were gently tapped to mix compound in with the cell media and left to incubate at 37° C. with 5% CO2 for 1 hour.
# Media was removed from the wells using vacuum aspiration; cells were fixed by adding 50 μl of 100% methanol to each well and incubated at room temperature for 20 minutes.
# The plates were read on an Arrayscan (Cellomics).
SMILES,IC50 [1] [µM],IC50 [2] [µM],IC50 [3] [µM]
"COCCCc1cc(Nc2ccnc(NCc3cc(C4CC4)no3)n2)n[nH]1 [Example 18, N-[(3-cyclopropyl-1,2-oxazol-5-yl)methyl]-N′-[5-(3-methoxypropyl)-2H-pyrazol-3-yl]pyrimidine-2,4-diamine]",1 to 10,,
"COCC(C)Oc1cc(Nc2ccnc(NCc3cc(C)no3)n2)n[nH]1 (centres unmarked) [Example 75, N′-[5-(1-methoxypropan-2-yloxy)-1H-pyrazol-3-yl]-N-[(3-methyl-1,2-oxazol-5-yl)methyl]pyrimidine-2,4-diamine]",> 10,< 10,
"CCOc1ccc(COc2cc(Nc3ccnc(NCc4cc(C)no4)n3)n[nH]2)cc1OC [Example 99, N′-[5-[(4-ethoxy-3-methoxy-phenyl)methoxy]-1H-pyrazol-3-yl]-N-[(3-methyl1,2-oxazol-5-yl)methyl]pyrimidine-2,4-diamine]",> 10,< 10,
"Cc1cc(CNc2nccc(Nc3cc(CCc4cccc(OC(C)C)c4)[nH]n3)n2)on1 [Example 122, N-[(3-methyl-1,2-oxazol-5-yl)methyl]-N′-[5-[2-(3-propan-2-yloxyphenyl)ethyl]-1H-pyrazol-3-yl]pyrimidine-2,4-diamine]",,< 1,< 1
"NC(=O)c1cc(CNc2nccc(Nc3cc(CCc4cccc(OCC5CC5)c4)[nH]n3)n2)on1 [Example 123, 5-[[[4-[[5-[2-[3-(cyclopropylmethoxy)phenyl]ethyl]-1H-pyrazol-3-yl]amino]pyrimidin-2-yl]amino]methyl]-1,2-oxazole-3-carboxamide]",,< 1,< 10
"COc1cc(CCc2cc(Nc3ccnc(NCc4cc(C)no4)n3)n[nH]2)cc(OC)n1 [Example 124, N′-[5-[2-(2,6-dimethoxypyridin-4-yl)ethyl]-1H-pyrazol-3-yl]-N-[(3-methyl-1,2-oxazol-5-yl)methyl]pyrimidine-2,4-diamine]",,< 0.2,< 0.2
"Cc1cc(CNc2nccc(Nc3cc(CCc4cccc(N)c4)[nH]n3)n2)on1 [Example 125, N′-[5-[2-(3-aminophenyl)ethyl]-1H-pyrazol-3-yl]-N-[(3-methyl-1,2-oxazol-5-yl)methyl]pyrimidine-2,4-diamine]",,< 0.2,< 1
"COc1cc(Cl)cc(CCc2cc(Nc3ccnc(NCc4cc(C(N)=O)no4)n3)[nH]n2)c1 [Example 126, 5-[[[4-[[5-[2-(3-chloro-5-methoxy-phenyl)ethyl]-2H-pyrazol-3-yl]amino]pyrimidin-2-yl]amino]methyl]-1,2-oxazole-3-carboxamide]",,< 0.2,< 0.2
"COc1cncc(CCc2cc(Nc3ccnc(NCc4cc(CN(C)C)no4)n3)n[nH]2)c1 [Example 127, N-[[3-(dimethylaminomethyl)-1,2-oxazol-5-yl]methyl]-N′-[5-[2-(5-methoxypyridin-3-yl)ethyl]-1H-pyrazol-3-yl]pyrimidine-2,4-diamine]",,< 1,< 30
"COc1ccc(CCc2cc(Nc3ccnc(NCc4cc(C)no4)n3)n[nH]2)s1 [Example 129, N′-[5-[2-(5-methoxythiophen-2-yl)ethyl]-1H-pyrazol-3-yl]-N-[(3-methyl-1,2-oxazol-5-yl)methyl]pyrimidine-2,4-diamine]",,< 10,< 1

# More lines, now with the values ahead:
IC50 [1] [µM],IC50 [2] [µM],IC50 [3] [µM],SMILES
,< 1,< 10,"COc1ncc(CCc2cc(Nc3ccnc(NCc4cc(C)no4)n3)n[nH]2)s1 [Example 130, N′-[5-[2-(2-methoxy-1,3-thiazol-5-yl)ethyl]-1H-pyrazol-3-yl]-N-[(3-methyl-1,2-oxazol-5-yl)methyl]pyrimidine-2,4-diamine]"
,< 0.2,< 0.2,"COc1cc(C)cc(COc2cc(Nc3ccnc(NCc4cc(C)no4)n3)n[nH]2)c1 [Example 131, N′-[5-[(3-methoxy-5-methyl-phenyl)methoxy]-1H-pyrazol-3-yl]-N-[(3-methyl-1,2-oxazol-5-yl)methyl]pyrimidine-2,4-diamine]"
,< 0.2,< 1,"CNC(=O)c1cc(CCc2cc(Nc3ccnc(NCc4cc(C)no4)n3)n[nH]2)cc(OC)c1 [Example 132, 3-Methoxy-N-methyl-5-[2-[5-[[2-[(3-methyl-1,2-oxazol-5-yl)methylamino]pyrimidin-4-yl]amino]-1H-pyrazol-3-yl]ethyl]benzamide]"
,< 0.2,< 10,"Cc1cc(CNc2nccc(Nc3cc(CCc4cccc(Oc5ncccn5)c4)[nH]n3)n2)on1 [Example 133, N-[(3-methyl-1,2-oxazol-5-yl)methyl]-N′-[5-[2-(3-pyrimidin-2-yloxyphenyl)ethyl]-1H-pyrazol-3-yl]pyrimidine-2,4-diamine hydrochloride]"
,< 10,< 30,"Cc1cc(CNc2nccc(Nc3cc(CCc4cccc(=O)[nH]4)[nH]n3)n2)on1 [Example 134, 6-[2-[5-[[2-[(3-methyl-1,2-oxazol-5-yl)methylamino]pyrimidin-4-yl]amino]-2H-pyrazol-3-yl]ethyl]-1H-pyridin-2-one dihydrochloride]"
,< 0.2,< 1,"COc1cc(COc2cc(Nc3ccnc(NCc4cc(C)no4)n3)n[nH]2)c(F)cn1 [Example 135, N′-[5-[(5-fluoro-2-methoxy-pyridin-4-yl)methoxy]-1H-pyrazol-3-yl]-N-[(3-methyl-1,2-oxazol-5-yl)methyl]pyrimidine-2,4-diamine]"
,< 1,< 10,"COc1cc(CCc2cc(Nc3ccnc(NCc4cc(CN(C)C)no4)n3)n[nH]2)c(F)cn1 [Example 136, N-[[3-(dimethylaminomethyl)-1,2-oxazol-5-yl]methyl]-N′-[5-[2-(5-fluoro-2-methoxy-pyridin-4-yl)ethyl]-1H-pyrazol-3-yl]pyrimidine-2,4-diamine]"
,< 1,< 30,"COc1ccnc(COc2cc(Nc3ccnc(NCc4cc(C)no4)n3)n[nH]2)c1 [Example 137, N′-[5-[(4-methoxypyridin-2-yl)methoxy]-1H-pyrazol-3-yl]-N-[(3-methyl-1,2-oxazol-5-yl)methyl]pyrimidine-2,4-diamine]"
,< 1,< 10,"COc1cncc(CCc2cc(Nc3ccnc(NCc4cc(C)no4)n3)n[nH]2)c1 [Example 138, N′-[5-[2-(5-methoxypyridin-3-yl)ethyl]-1H-pyrazol-3-yl]-N-[(3-methyl-1,2-oxazol-5-yl)methyl]pyrimidine-2,4-diamine]"
,,< 30,"COc1cc(CCc2cc(Nc3ccnc(NCc4cc(C)no4)n3)n[nH]2)cc(NC(C)=O)c1 [Example 139, N-[3-methoxy-5-[2-[5-[[2-[(3-methyl-1,2-oxazol-5-yl)methylamino]pyrimidin-4-yl]amino]-2H-pyrazol-3-yl]ethyl]phenyl]acetamide]"
,,< 10,"CC(C)Oc1cccc(CCc2cc(Nc3ccnc(NCc4cc(C(N)=O)no4)n3)n[nH]2)c1 [Example 140, 5-[[[4-[[5-[2-(3-propan-2-yloxyphenyl)ethyl]-1H-pyrazol-3-yl]amino]pyrimidin-2-yl]amino]methyl]-1,2-oxazole-3-carboxamide]"
,< 0.2,< 1,"CNC(=O)c1cccc(CCc2cc(Nc3ccnc(NCc4cc(C)no4)n3)n[nH]2)c1 [Example 141, N-methyl-3-[2-[5-[[2-[(3-methyl-1,2-oxazol-5-yl)methylamino]pyrimidin-4-yl]amino]-1H-pyrazol-3-yl]ethyl]benzamide]"
